The record followed here is PMC9179341, “Design of New Potent and Selective Thiophene-Based KV1.3 Inhibitors and Their Potential for Anticancer Activity” (Cancers, 2022).

Chain of KV1.3 (P22001 whole entry): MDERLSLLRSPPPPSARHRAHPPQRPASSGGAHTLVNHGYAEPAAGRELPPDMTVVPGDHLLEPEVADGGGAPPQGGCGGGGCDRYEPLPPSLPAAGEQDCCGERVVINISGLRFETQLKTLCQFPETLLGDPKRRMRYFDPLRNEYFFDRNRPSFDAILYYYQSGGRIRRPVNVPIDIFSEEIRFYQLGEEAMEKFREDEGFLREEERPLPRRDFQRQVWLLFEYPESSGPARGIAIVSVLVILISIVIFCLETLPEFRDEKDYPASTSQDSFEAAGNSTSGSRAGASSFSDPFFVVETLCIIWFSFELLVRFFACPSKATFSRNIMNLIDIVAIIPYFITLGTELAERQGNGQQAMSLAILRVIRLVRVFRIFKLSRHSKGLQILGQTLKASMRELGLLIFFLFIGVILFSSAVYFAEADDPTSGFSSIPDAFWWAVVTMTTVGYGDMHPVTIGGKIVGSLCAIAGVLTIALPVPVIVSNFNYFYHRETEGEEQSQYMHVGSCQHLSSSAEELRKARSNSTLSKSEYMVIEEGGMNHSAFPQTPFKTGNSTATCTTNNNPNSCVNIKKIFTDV

The first experiment addresses KV1.3 (Homo sapiens, UniProt P22001). As to the kind of experiment: KV1.3 inhibition, manual voltage-clamp on Xenopus laevis oocytes. It is filed as cell-based. Conditions: 10 μM; manual voltage-clamp on Xenopus laevis oocytes. On the procedure: Stage V–VI oocytes were isolated by partial ovariectomy from Xenopus laevis frogs (African clawed frogs). […] After anaesthetizing the frogs by a 15-min submersion in 0.1% tricaine methanesulfonate (amino benzoic acid ethyl ester; Merck, Kenilworth, NJ, USA), pH 7.0, the oocytes were collected. The isolated oocytes were then washed with a 1.5 mg/mL collagenase solution for 2 h to remove the follicle layer.
Ion channels (Kv1.x, Kv2.1, Kv4.2, Kv10.1) were expressed in Xenopus laevis oocytes by linearization of the plasmids and subsequent in vitro transcription using a commercial T7 or SP6 mMESSAGE mMACHINE transcription kit (Ambion, Carlsbad, California, USA). Defolliculated Xenopus oocytes were then injected with 20–50 nL of the cRNA at a concentration of 1 ng/nL using a micro-injector (Drummond Scientific1, Broomall, PA, USA). The oocytes were incubated in a solution containing (in mM): NaCl, 96; KCl, 2; CaCl2, 1.8; MgCl2, 2 and HEPES, 5 (pH 7.5), supplemented with 50 mg/L gentamycin sulfate and 90 mg/L theophylline.
Two-electrode voltage-clamp recordings were performed at room temperature (18–22 °C) using a Geneclamp 500 amplifier (Molecular Devices, San Jose, CA, USA) and pClamp data acquisition (Axon Instruments, Union City, CA, USA) and using an integrated digital TEVC amplifier controlled by HiClamp, an automated Voltage-Clamp Screening System (Multi Channel Systems MCS GmbH, Reutlingen, Germany). Whole-cell currents from oocytes were recorded 1–4 days after injection. The bath solution composition was ND96 (in mM): NaCl, 96; KCl, 2; CaCl2, 1.8; MgCl2, 2 and HEPES, 5 (pH 7.5). Voltage and current electrodes were filled with a 3 M solution of KCl in H2O. […] The elicited Kv1.x, Kv2.1, Kv4.2 and Kv10.1 currents were filtered at 0.5 kHz and sampled at 2 kHz using a four-pole low-pass Bessel filter. Leak subtraction was performed using a P/4 protocol.
For the electrophysiological analysis of the compounds, a number of protocols were applied from a holding potential of −90 mV. Currents for Kv1.x, Kv2.1, Kv4.2 and Kv10.1 were evoked by 1 s depolarizing pulses either to 0 mV or to a range of voltage steps between −80 mV and +40 mV. For the analysis of the data, only the inhibition at the 0 mV step was used. The concentration dependency of all compounds was assessed by measuring the current inhibition in the presence of increasing compound concentrations. […] From this stock solution, adequate dilutions with a maximum of 0.5% DMSO were made for testing.
All electrophysiological data (Figure S1) are presented as means ± S.E.M of n ≥ three independent experiments unless otherwise indicated. […] The Dunnett test and one-way ANOVA were performed to calculate the significance of the induced inhibition compared to the control.
For orientation: inhibition means the change of the read-out against control, counted positive when it falls. Low values mean little suppression, high ones strong suppression. Regarding `COc1ccc(C2(CNC(=O)c3ccccc3OC)CCCC2)cc1` [Compound 6], the inhibition at 10 µM was less than 10%.
Compound `COc1ccccc1C(=O)NCC1(c2ccccc2OC)CCCC1` [Compound 7] registered an inhibition at 10 µM of less than 10%.
Regarding `COc1ccc(C2(CNC(=O)c3ccccc3OC)CCCC2)cc1OC` [Compound 8], the inhibition at 10 µM is less than 10%.
On the same count and under the same terms, to `COc1ccccc1C(=O)NCC1(c2ccc3c(c2)OCO3)CCCC1` [Compound 9] belongs less than 10%.
`COc1ccccc1C(=O)NCC1(c2ccccc2)CCCC1` [Compound 10] registered an inhibition at 10 µM of less than 10%.
The same measure, in the same setting: to `COc1cccc(C2(CNC(=O)c3ccccc3OC)CCCC2)c1` [Compound 11] belongs 18 ± 3%; to `COc1ccccc1C(=O)NCC1(c2cccc(C)c2)CCCC1` [Compound 12], 16 ± 4%.
As for `COc1ccccc1C(=O)NCC1(c2cccs2)CCCC1` [Compound 13], the inhibition at 10 µM came out at 57 ± 9%.
Still for that read-out and setting: the same measure for `COc1ccc(C2(CNC(=O)c3ccccc3OC)CCCCC2)cc1OC` [Compound 15]: less than 10%; for `COc1ccc(C2(CNC(=O)c3ccccc3OC)CCCCC2)cc1` [Compound 16]: less than 10%.
Take `COc1ccccc1C(=O)NCC1(c2ccc(C(F)(F)F)cc2)CCCCC1` [Compound 17]: the inhibition at 10 µM is less than 10%.
Same read-out and setting: to `COc1ccccc1C(=O)NCC1(c2ccccc2OC)CCCCC1` [Compound 18] belongs less than 10%; to `COc1cccc(C2(CNC(=O)c3ccccc3OC)CCCCC2)c1` [Compound 19], 12 ± 2%; to `COc1ccccc1C(=O)NCC1(c2cccc(C)c2)CCCCC1` [Compound 20], 27 ± 2%.
Consider `COc1ccccc1C(=O)NCC1(c2ccsc2)CCCCC1` [Compound 21], for which at 10 µM the inhibition was 30 ± 8%.
For `COc1ccccc1C(=O)NCC1(c2ccc(C(F)(F)F)cc2)CCOCC1` [Compound 22], the inhibition at 10 µM is less than 10%.
In turn, `COc1ccc(C2(CNC(=O)c3ccccc3OC)CCOCC2)cc1OC` [Compound 23] returned an inhibition at 10 µM of less than 10%.
Compound `COc1ccc(C2(CNC(=O)c3ccccc3OC)CCOCC2)cc1` [Compound 24] came in with an inhibition at 10 µM of 59 ± 5%.
With `COc1ccccc1C(=O)NCC1(c2ccc(C)cc2)CCOCC1` [Compound 25], the inhibition at 10 µM came to 52 ± 8%.
The compound `COc1ccccc1C(=O)NCC1(c2ccc3c(c2)OCO3)CCOCC1` [Compound 26] had an inhibition at 10 µM of 60 ± 9%.
`COc1ccccc1C(=O)NCC1(c2ccccc2OC)CCOCC1` [Compound 27] displayed an inhibition at 10 µM of 78 ± 4%.
The compound `COc1cccc(C2(CNC(=O)c3ccccc3OC)CCOCC2)c1` [Compound 28] returned an inhibition at 10 µM of 88 ± 4%.
`COc1ccccc1C(=O)NCC1(c2cccc(C)c2)CCOCC1` [Compound 29] gave an inhibition at 10 µM of 87 ± 4%.
The compound `COc1cccc(OC)c1C(=O)NCC1(c2ccccc2)CCOCC1` [Compound 30] had an inhibition at 10 µM of less than 10%.
On to `O=C(NCC1(c2ccccc2)CCOCC1)c1ccsc1` [Compound 31], for which at 10 µM the inhibition was 11 ± 4%.
With `O=C(NCC1(c2ccccc2)CCOCC1)c1ccoc1` [Compound 32], the inhibition at 10 µM was determined as 27 ± 6%.
Still for that read-out and setting: to `COc1ccccc1CC(=O)NCC1(c2ccccc2)CCOCC1` [Compound 33] belongs 38 ± 5%.
For the compound `COc1ccc(C)cc1C(=O)NCC1(c2ccccc2)CCOCC1` [Compound 34], the inhibition at 10 µM came out at 47 ± 1%.
`CCOc1ccccc1C(=O)NCC1(c2ccccc2)CCOCC1` [Compound 35]: at 10 µM the inhibition was 74 ± 9%.
Turning to `COc1ccccc1C(=O)NCC1(c2csc3ccccc23)CCOCC1` [Compound 38], the inhibition at 10 µM is less than 10%.
As for `COc1ccc(-c2csc(C3(CNC(=O)c4ccccc4OC)CCOCC3)n2)cc1` [Compound 39], the inhibition at 10 µM is less than 10%.
The compound `COc1ccccc1C(=O)NCC1(c2nc(-c3ccccc3)cs2)CCOCC1` [Compound 40] displayed an inhibition at 10 µM of less than 10%.

Staying with this experiment, now noted: KV1.3; manual voltage-clamp, Xenopus laevis oocytes.
As usually defined, the IC50 is the concentration needed to halve the response being measured. High values mean weaker potency in that assay, low ones greater potency in that assay. `COc1cccc(C2(CNC(=O)c3ccccc3OC)CCOCC2)c1` [Compound 28] had an IC50 of 5.75 µM.
`COc1ccccc1C(=O)NCC1(c2cccc(C)c2)CCOCC1` [Compound 29] had a half-maximal inhibitory concentration (IC50) of 4.3 µM.
